Patent US6737383B1, “Herbicidal oxadiazolidines” (priority 1999, dated 2004)

Assays:
bedstraw = assay: Test B pre/postemergence bedstraw; assay type: in vivo, Galium aparine
Method in brief: (§1)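 Herbicidal effect was estimated by eye on a ten-point control scale after plants spent twelve to sixteen days in a greenhouse following soil or foliar treatment. Foliar sprays targeted plants at one to four leaves; all doses were formulated in a non-phytotoxic solvent with surfactant.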

blackgrass = assay: Test B pre/postemergence blackgrass; assay type: in vivo, Alopecurus myosuroides
Method in brief: as §1

surinam grass = assay: Test B pre/postemergence surinam grass; assay type: in vivo, Brachiaria decumbens; conditions: Postemergence
Method in brief: as §1

cocklebur = assay: Test B pre/postemergence cocklebur; assay type: in vivo, Xanthium strumarium
Method in brief: as §1

corn = assay: Test B pre/postemergence corn; assay type: in vivo, Zea mays
Method in brief: as §1

crabgrass = assay: Test B pre/postemergence crabgrass; assay type: in vivo, Digitaria sanguinalis
Method in brief: as §1

giant foxtail = assay: Test B pre/postemergence giant foxtail; assay type: in vivo, Setaria faberii
Method in brief: as §1

morningglory = assay: Test B pre/postemergence morningglory; assay type: in vivo, Ipomoea hederacea
Method in brief: as §1

pigweed = assay: Test B pre/postemergence pigweed; assay type: in vivo, Amaranthus retroflexus
Method in brief: as §1

rape = assay: Test B pre/postemergence rape; assay type: in vivo, Brassica napus; conditions: Preemergence
Method in brief: as §1

soybean = assay: Test B pre/postemergence soybean; assay type: in vivo, Glycine max
Method in brief: as §1

sugar beet = assay: Test B pre/postemergence sugar beet; assay type: in vivo, Beta vulgaris
Method in brief: as §1

velvetleaf = assay: Test B pre/postemergence velvetleaf; assay type: in vivo, Abutilon theophrasti
Method in brief: as §1

wheat = assay: Test B pre/postemergence wheat; assay type: in vivo, Triticum aestivum
Method in brief: as §1

wild oat = assay: Test B pre/postemergence wild oat; assay type: in vivo, Avena fatua
Method in brief: as §1

purple nutsedge = assay: Test B pre/postemergence purple nutsedge; assay type: in vivo, Cyperus rotundus
Method in brief: as §1

[1] = Postemergence, Rate 62 g/ha, scale 0 to 10, 0 is no effect, 10 is complete control
[2] = Postemergence, Rate 125 g/ha, scale of 0 to 10 where 0 is no effect and 10 is complete control
[3] = Postemergence, Rate 500 g/ha, scale 0 (no effect) to 10 (complete control)
[4] = Rate 125 g/ha, Preemergence, scale 0 to 10 (0 no effect, 10 complete control)
[5] = Rate 250 g/ha, Postemergence, scale 0 to 10, 0 is no effect, 10 is complete control
[6] = Rate 500 g/ha, Preemergence, scale 0 to 10 (0 no effect, 10 complete control)
[7] = Preemergence, Rate 250 g/ha, scale 0 (no effect) to 10 (complete control)
[8] = Rate 62 g/ha, Preemergence, scale 0 to 10

Structure (SMILES): C#CCCn1c(=O)on(C(=O)N(c2ccc(F)cc2)C(C)C)c1=O [Compound 767]
- Plant response rating, Bedstraw (bedstraw; [1]): 7
- Bedstraw plant response rating (bedstraw; [2]): 7
- Bedstraw plant response rating (bedstraw; [3]): 9
- Bedstraw plant response rating (bedstraw; [4]): 0
- Bedstraw plant response rating (bedstraw; [5]): 7
- Bedstraw plant response rating (bedstraw; [6]): 8
- Plant response rating, Blackgrass (blackgrass; [1]): 9
- Blackgrass plant response rating (blackgrass; [2]): 9
- Blackgrass plant response rating (blackgrass; [3]): 9
- Blackgrass plant response rating (blackgrass; [7]): 10
- Blackgrass plant response rating (blackgrass; [8]): 10
- Blackgrass plant response rating (blackgrass; [4]): 10
- Blackgrass plant response rating (blackgrass; [5]): 9
- Blackgrass plant response rating (blackgrass; [6]): 10
- Plant response rating, B. signalgrass (surinam grass; Rate 62 g/ha, scale 0 to 10, 0 is no effect, 10 is complete control): 2
- B. signalgrass plant response rating (surinam grass; Rate 125 g/ha, scale of 0 to 10 where 0 is no effect and 10 is complete control): 2
- B. signalgrass plant response rating (surinam grass; Rate 250 g/ha, scale 0 to 10, 0 is no effect, 10 is complete control): 6
- B. signalgrass plant response rating (surinam grass; Rate 500 g/ha, scale 0 to 10, 0 is no effect, 10 is complete control): 7
- Plant response rating, Cocklebur (cocklebur; [1]): 2
- Cocklebur plant response rating (cocklebur; [2]): 2
- Cocklebur plant response rating (cocklebur; [3]): 2
- Cocklebur plant response rating (cocklebur; [7]): 0
- Cocklebur plant response rating (cocklebur; [8]): 0
- Cocklebur plant response rating (cocklebur; [4]): 0
- Cocklebur plant response rating (cocklebur; [5]): 2
- Cocklebur plant response rating (cocklebur; [6]): 0
- Plant response rating, Corn (corn; [1]): 0
- Corn plant response rating (corn; [2]): 0
- Corn plant response rating (corn; [3]): 2
- Corn plant response rating (corn; [7]): 0
- Corn plant response rating (corn; [8]): 0
- Corn plant response rating (corn; [4]): 0
- Corn plant response rating (corn; [5]): 0
- Corn plant response rating (corn; [6]): 5
- Plant response rating, Crabgrass (crabgrass; [1]): 8
- Crabgrass plant response rating (crabgrass; [2]): 8
- Crabgrass plant response rating (crabgrass; [3]): 9
- Crabgrass plant response rating (crabgrass; [7]): 10
- Crabgrass plant response rating (crabgrass; [8]): 10
- Crabgrass plant response rating (crabgrass; [4]): 10
- Crabgrass plant response rating (crabgrass; [5]): 9
- Crabgrass plant response rating (crabgrass; [6]): 10
- Plant response rating, Giant foxtail (giant foxtail; [1]): 8
- Giant foxtail plant response rating (giant foxtail; [2]): 8
- Giant foxtail plant response rating (giant foxtail; [3]): 9
- Giant foxtail plant response rating (giant foxtail; [7]): 10
- Giant foxtail plant response rating (giant foxtail; [8]): 10
- Giant foxtail plant response rating (giant foxtail; [4]): 10
- Giant foxtail plant response rating (giant foxtail; [5]): 9
- Giant foxtail plant response rating (giant foxtail; [6]): 10
- Plant response rating, Morningglory (morningglory; [1]): 5
- Morningglory plant response rating (morningglory; [2]): 5
- Morningglory plant response rating (morningglory; [3]): 7
- Morningglory plant response rating (morningglory; [8]): 0
- Morningglory plant response rating (morningglory; [4]): 0
- Morningglory plant response rating (morningglory; [5]): 5
- Morningglory plant response rating (morningglory; [6]): 0
- Plant response rating, Redroot pigweed (pigweed; [1]): 6
- Redroot pigweed plant response rating (pigweed; [2]): 9
- Redroot pigweed plant response rating (pigweed; [3]): 9
- Redroot pigweed plant response rating (pigweed; [8]): 10
- Redroot pigweed plant response rating (pigweed; [4]): 10
- Redroot pigweed plant response rating (pigweed; [5]): 9
- Redroot pigweed plant response rating (pigweed; [6]): 10
- Rape plant response rating (rape; Rate 62 g/ha, scale 0 to 10): 4
- Rape plant response rating (rape; Rate 125 g/ha, scale 0 to 10 (0 no effect, 10 complete control)): 6
- Rape plant response rating (rape; Rate 500 g/ha, scale 0 to 10 (0 no effect, 10 complete control)): 10
- Plant response rating, Soybean (soybean; [1]): 1
- Soybean plant response rating (soybean; [3]): 7
- Soybean plant response rating (soybean; [8]): 0
- Soybean plant response rating (soybean; [4]): 0
- Soybean plant response rating (soybean; [5]): 4
- Soybean plant response rating (soybean; [6]): 2
- Plant response rating, Sugarbeets (sugar beet; [1]): 3
- Sugarbeets plant response rating (sugar beet; [3]): 7
- Sugarbeets plant response rating (sugar beet; [8]): 2
- Sugarbeets plant response rating (sugar beet; [4]): 6
- Sugarbeets plant response rating (sugar beet; [5]): 5
- Sugarbeets plant response rating (sugar beet; [6]): 9
- Plant response rating, Velvetleaf (velvetleaf; [1]): 2
- Velvetleaf plant response rating (velvetleaf; [3]): 3
- Velvetleaf plant response rating (velvetleaf; [8]): 0
- Velvetleaf plant response rating (velvetleaf; [4]): 0
- Velvetleaf plant response rating (velvetleaf; [5]): 2
- Velvetleaf plant response rating (velvetleaf; [6]): 2
- Plant response rating, Wheat (wheat; [1]): 0
- Wheat plant response rating (wheat; [3]): 2
- Wheat plant response rating (wheat; [8]): 0
- Wheat plant response rating (wheat; [4]): 5
- Wheat plant response rating (wheat; [5]): 2
- Wheat plant response rating (wheat; [6]): 5
- Plant response rating, Wild oats (wild oat; [1]): 0
- Wild oats plant response rating (wild oat; [3]): 3
- Wild oats plant response rating (wild oat; [8]): 9
- Wild oats plant response rating (wild oat; [5]): 0
- Wild oats plant response rating (wild oat; [6]): 9
- Plant response rating, Nutsedge (purple nutsedge; [1]): 0
- Nutsedge plant response rating (purple nutsedge; [2]): 0
- Nutsedge plant response rating (purple nutsedge; [3]): 7
- Nutsedge plant response rating (purple nutsedge; [8]): 0
- Nutsedge plant response rating (purple nutsedge; [4]): 0
- Nutsedge plant response rating (purple nutsedge; [5]): 0
- Nutsedge plant response rating (purple nutsedge; [6]): 0
